# Source: US20070032529A1, “Pyrazole compounds and their use as antidiabetes agents” (Japan Tobacco Inc., priority 2005, published 2007)
# Counter-ions that a name gives are not always drawn.
# Target: T1, recombinant human liver glycogen phosphorylase (Homo sapiens, UniProt P06737)
# T1 construct: made in house; host or cells: Sf9 insect cells (crude homogenate, diluted, used as the enzyme solution)
# T1 sequence (P06737 1-847): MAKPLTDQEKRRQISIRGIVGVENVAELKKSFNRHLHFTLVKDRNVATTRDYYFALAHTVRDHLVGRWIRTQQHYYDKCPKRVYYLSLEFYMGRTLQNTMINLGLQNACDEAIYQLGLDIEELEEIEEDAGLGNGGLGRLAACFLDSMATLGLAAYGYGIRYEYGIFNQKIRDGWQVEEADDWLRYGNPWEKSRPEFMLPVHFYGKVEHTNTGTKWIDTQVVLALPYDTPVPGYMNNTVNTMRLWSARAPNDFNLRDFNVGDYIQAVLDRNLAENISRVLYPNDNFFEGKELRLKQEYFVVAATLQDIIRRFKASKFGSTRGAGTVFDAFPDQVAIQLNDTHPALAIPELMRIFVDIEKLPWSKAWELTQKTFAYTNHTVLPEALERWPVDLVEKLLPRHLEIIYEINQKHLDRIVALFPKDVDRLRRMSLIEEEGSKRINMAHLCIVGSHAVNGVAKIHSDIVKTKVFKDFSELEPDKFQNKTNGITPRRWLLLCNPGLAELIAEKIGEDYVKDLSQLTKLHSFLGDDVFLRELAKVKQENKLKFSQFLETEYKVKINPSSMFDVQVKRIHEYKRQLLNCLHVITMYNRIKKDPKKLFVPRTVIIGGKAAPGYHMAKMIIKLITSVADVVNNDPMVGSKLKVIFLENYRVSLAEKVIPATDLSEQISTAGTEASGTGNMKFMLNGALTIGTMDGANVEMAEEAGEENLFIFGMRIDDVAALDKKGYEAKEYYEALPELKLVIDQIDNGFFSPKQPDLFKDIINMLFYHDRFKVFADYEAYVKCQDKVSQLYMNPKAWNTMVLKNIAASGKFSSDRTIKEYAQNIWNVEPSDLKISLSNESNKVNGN
# Test: Measuring liver glycogen phosphorylase activity (forward reaction system, NADPH absorbance at 340 nm)
# Format: biochemical
# Conditions: for inhibition at 0.1 µM / inhibition rate (%) at a certain concentration: compound concentration 100 nmol (in parentheses); for IC50: enzyme inhibitory activity with respect to liver glycogen phosphorylase, class symbols
# Experimental: [Pharmacological Test] 1. Exemplary Test (1) Method for Measuring Liver Glycogen Phosphorylase Activity
# The measurement of glycogen phosphorylase activity was carried out by a method using the forward reaction system.
# The measurement of glycogen phosphorylase activity using the forward reaction system was carried out as follows. Glucose-1-phosphate prepared from glycogen by glycogen phosphorylase was converted into glucono-δ-lactone 6-phosphate through transphosphorylation and dehydrogenation using phosphoglucomutase and glucose-6-phosphate dehydrogenase (G6PDH). NADPH generated from NADP during the dehydrogenation by G6PDH was detected.
# A homogenate of the Sf9 cells which expressed exogenously recombinant human liver glycogen phosphorylase was diluted with 100 mmol/LBES buffer solution (pH 6.8, containing 2 mmol/L EDTA) and the dilution was used as the enzyme solution of human liver glycogen phosphorylase. As the substrate, a phosphate buffer (containing 16 mmol/L KH2PO4, 24 mmol/L Na2HPO4) was used. A mixture of 8 U/mL phosphoglucomutase and 60 U/mL G6PDH was prepared in BES buffer solution. Buffer solution (containing 1.4 mmol/L NADP, 30 mmol/L MgCl2, 8 μmol/L glucose-1,6-diphosphate, 8 mg/mL glycogen, 40 mmol/LBES, 0.8 mmol/L EDTA) for reaction and a glucose solution (containing 75 mmol/L glucose, 100 mmol/LBES, 2 mmol/L EDTA) were prepared individually. The test compound was dissolved in 1% DMSO solution.
# The enzymatic reaction was begun by adding 20 μL of the recombinant human liver glycogen phosphorylase solution and 20 μL of the mixture of phosphoglucomutase and G6PDH to the mixture of 20 μL of the glucose solution, 20 μL of the substrate, 100 μL of the buffer solution for reaction and 20 μL of the test compound solution. As control, 1% DMSO solution was added instead of the test compound. The mixture without the substrate was used as blank. The absorbance at 340 nm was measured immediately after the reaction started. The absorbance at 340 nm was measured again after reacting at room temperature for 75 minutes. The enzymatic activity is a value obtained by subtracting the blank variation in absorbance over 75 minutes from the variation in absorbance over 75 minutes.
# The inhibition rate (%) of the test compound was calculated by the expression “(1-enzymatic activity of test compound/enzymatic activity of control)×100.”
# A linear equation was determined from the two concentration points with the 50% inhibition rate therebetween, and the IC50 value was calculated from the concentration at the intersection of the line with the 50% inhibition rate.
# “IC50” in the tables indicates the above-described enzyme inhibitory activity with respect to liver glycogen phosphorylase, and the activity to inhibit liver glycogen phosphorylase was represented as ++ when the IC50 value (nmol/L) was less than 100 nmol/L, as + when the IC50 value was between 100 nmol/L and 300 nmol/L. When IC50 is 300 nmol/L or more, an inhibition rate (%) at a certain concentration of the compound (I) of the present invention is shown in Tables. For example, when the inhibition rate is 20% at a concentration of 300 nmol, the rate is described as 20% (300).
# [1] = read-out: inhibition rate (%) at a certain concentration
SMILES,inhibition at 0.1 µM [1],IC50,also measured
O=C(NCCc1cccnc1)c1cc(NC(=O)c2cc(F)c(F)cc2Cl)[nH]n1 [Example 1-140],30.8%,,
O=C(NCCc1ccncc1)c1cc(NC(=O)c2cc(F)c(F)cc2Cl)[nH]n1 [Example 1-141],31.4%,,
O=C(NCc1ccc(-c2csnn2)cc1)c1cc(NC(=O)c2cc(F)c(F)cc2Cl)[nH]n1 [Example 1-142],,< 0.1 µM,
O=C(Nc1cnccn1)c1cc(NC(=O)c2cc(F)c(F)cc2Cl)[nH]n1 [Example 1-144],5%,,
O=C(Nc1cccc2ncccc12)c1cc(NC(=O)c2cc(F)c(F)cc2Cl)[nH]n1 [Example 1-145],12.8%,,
O=C(Nc1cccc2cccnc12)c1cc(NC(=O)c2cc(F)c(F)cc2Cl)[nH]n1 [Example 1-146],11.3%,,
O=C(Nc1cccc2cnccc12)c1cc(NC(=O)c2cc(F)c(F)cc2Cl)[nH]n1 [Example 1-147],9.6%,,
CCOC(=O)C(C)(C)c1cnc(NC(=O)c2cc(NC(=O)c3cc(F)c(F)cc3Cl)[nH]n2)c(OCC)c1 [Example 1-148],14.1%,,
CCOC(=O)C(C)(C)c1cnc(NC(=O)c2cc(NC(=O)c3cc(F)c(F)cc3Cl)[nH]n2)c(OCC)c1 [Example 1-149],,,inhibition rate (%) at a certain concentration: 20.8%(100)
CCOc1cc(C(C)(C)C(=O)O)cnc1NC(=O)c1cc(NC(=O)c2cc(F)c(F)cc2Cl)[nH]n1 [Example 1-150],13.8%,,
CCOc1cc(C(C)(C)C(=O)O)cnc1NC(=O)c1cc(NC(=O)c2cc(F)c(F)cc2Cl)[nH]n1 [Example 1-151],,,inhibition rate (%) at a certain concentration: 13.3%(100)
O=C(NCc1cnccn1)c1cc(NC(=O)c2cc(F)c(F)cc2Cl)[nH]n1 [Example 1-152],,< 0.1 µM,
O=C(NCc1ccc(N2CCSCC2)nc1)c1cc(NC(=O)c2cc(F)c(F)cc2Cl)[nH]n1 [Example 1-153],,< 0.1 µM,
O=C(NCc1ccc(N2CCS(=O)(=O)CC2)nc1)c1cc(NC(=O)c2cc(F)c(F)cc2Cl)[nH]n1 [Example 1-154],,< 0.1 µM,
O=C(NCc1cc(Br)c(Br)s1)c1cc(NC(=O)c2cc(F)c(F)cc2Cl)[nH]n1 [Example 1-155],,< 0.1 µM,
O=C(NCc1ccc(Cl)s1)c1cc(NC(=O)c2cc(F)c(F)cc2Cl)[nH]n1 [Example 1-156],,< 0.1 µM,
CCc1nc(C)oc1CNC(=O)c1cc(NC(=O)c2cc(F)c(F)cc2Cl)[nH]n1 [Example 1-157],,< 0.1 µM,
CCc1nc(C)c(CNC(=O)c2cc(NC(=O)c3cc(F)c(F)cc3Cl)[nH]n2)o1 [Example 1-158],,< 0.1 µM,
O=C(NCc1ccc(-c2cccs2)s1)c1cc(NC(=O)c2cc(F)c(F)cc2Cl)[nH]n1 [Example 1-159],,0.1 to 0.3 µM,
COc1ccsc1CNC(=O)c1cc(NC(=O)c2cc(F)c(F)cc2Cl)[nH]n1 [Example 1-160],,< 0.1 µM,
O=C(NCc1cc(Cl)c(Cl)s1)c1cc(NC(=O)c2cc(F)c(F)cc2Cl)[nH]n1 [Example 1-161],,< 0.1 µM,
Cc1nc(CNC(=O)c2cc(NC(=O)c3cc(F)c(F)cc3Cl)[nH]n2)c(C)o1 [Example 1-162],,< 0.1 µM,
CCCCCCc1nc(C)c(CNC(=O)c2cc(NC(=O)c3cc(F)c(F)cc3Cl)[nH]n2)o1 [Example 1-163],,< 0.1 µM,
COc1cscc1CNC(=O)c1cc(NC(=O)c2cc(F)c(F)cc2Cl)[nH]n1 [Example 1-164],,< 0.1 µM,
Cc1nc(-c2ccccc2)oc1CNC(=O)c1cc(NC(=O)c2cc(F)c(F)cc2Cl)[nH]n1 [Example 1-165],,< 0.1 µM,
CN(C(=O)c1cc(NC(=O)c2cc(F)c(F)cc2Cl)[nH]n1)c1cccc(C(=O)O)c1 [Example 2-14],,,"inhibition at 0.3 µM (compound concentration 300 nmol (in parentheses), read-out: inhibition rate (%) at a certain concentration): 37.5%"
"CN(Cc1ccccc1)C(=O)c1cc(NC(=O)c2cc(F)c(F)cc2Cl)[nH]n1 [Example 3-1, 5-(2-chloro-4,5-difluoro-benzoylamino)-1H-pyrazole-3-carboxylic acid benzyl-methyl-amide]",,,"inhibition at 0.49 µM (compound concentration 490 nmol (in parentheses), read-out: inhibition rate (%) at a certain concentration): 50%"
O=C(Nc1ccccc1)c1cc(NC(=O)c2cc(F)c(F)cc2Cl)[nH]n1 [Example 3-3],,,"inhibition at 0.64 µM (compound concentration 640 nmol (in parentheses), read-out: inhibition rate (%) at a certain concentration): 50%"
O=C(Nc1cc(C(=O)N2CCCCC2)n[nH]1)c1cc(F)c(F)cc1Cl [Example 3-5],,,"inhibition at 1 µM (compound concentration 1000 nmol (in parentheses), read-out: inhibition rate (%) at a certain concentration): 41.1%"

# The next lines start with results.
inhibition at 0.1 µM [1],IC50,SMILES,also measured
,< 0.1 µM,Cc1nc(-c2ccccc2)c(CNC(=O)c2cc(NC(=O)c3cc(F)c(F)cc3Cl)[nH]n2)o1 [Example 1-166],
,< 0.1 µM,CCCCCCc1nc(C)oc1CNC(=O)c1cc(NC(=O)c2cc(F)c(F)cc2Cl)[nH]n1 [Example 1-167],
,< 0.1 µM,"O=C(NCc1nnc[nH]1)c1cc(NC(=O)c2cc(F)c(F)cc2Cl)[nH]n1 [Example 2-2-1, 5-(2-chloro-4,5-difluoro-benzoylamino)-1H-pyrazole-3-carboxylic acid (4H-[1,2,4]triazol-3-ylmethyl)-amide dihydrochloride]",
,< 0.1 µM,CS(=O)(=O)Nc1ccc(CNC(=O)c2cc(NC(=O)c3cc(F)c(F)cc3Cl)[nH]n2)cc1 [Example 2-16],
,< 0.1 µM,CC(=O)Nc1cccc(CNC(=O)c2cc(NC(=O)c3cc(F)c(F)cc3Cl)[nH]n2)c1 [Example 2-17],
,< 0.1 µM,CC(=O)Nc1ccc(CNC(=O)c2cc(NC(=O)c3cc(F)c(F)cc3Cl)[nH]n2)cc1 [Example 2-18],
,< 0.1 µM,O=C(NCc1csc(-c2ccccc2)n1)c1cc(NC(=O)c2cc(F)c(F)cc2Cl)[nH]n1 [Example 2-19],
43.1%,,C[C@@H](NC(=O)c1cc(NC(=O)c2cc(F)c(F)cc2Cl)[nH]n1)c1ccccc1 [Example 2-20],
5.7%,,C[C@H](NC(=O)c1cc(NC(=O)c2cc(F)c(F)cc2Cl)[nH]n1)c1ccccc1 [Example 2-21],
,< 0.1 µM,O=C(NCc1ccc(Oc2ccccc2)nc1)c1cc(NC(=O)c2cc(F)c(F)cc2Cl)[nH]n1 [Example 2-22],
36.4%,,CC(NC(=O)c1cc(NC(=O)c2cc(F)c(F)cc2Cl)[nH]n1)c1cccnc1 (stereo not drawn) [Example 2-26],
45.8%,,O=C(NCc1cccc(-c2ccccc2)c1)c1cc(NC(=O)c2cc(F)c(F)cc2Cl)[nH]n1 [Example 2-29],
1.8%,,O=C(N[C@@H]1c2ccccc2C[C@@H]1O)c1cc(NC(=O)c2cc(F)c(F)cc2Cl)[nH]n1 [Example 2-30],
5.5%,,O=C(N[C@H]1c2ccccc2C[C@H]1O)c1cc(NC(=O)c2cc(F)c(F)cc2Cl)[nH]n1 [Example 2-31],
,< 0.1 µM,O=C(NCc1ccc(-c2ccccc2)nc1)c1cc(NC(=O)c2cc(F)c(F)cc2Cl)[nH]n1 [Example 2-32],
,< 0.1 µM,Cc1ccc(CNC(=O)c2cc(NC(=O)c3cc(F)c(F)cc3Cl)[nH]n2)c(=O)[nH]1 [Example 2-33],
